Measured values published in ChEMBL document CHEMBL1159202, “A furanoid labdane diterpene from Potamogeton nodosus” (1998).

What was measured:
Format in all cases: functional
Bacillus cereus = assay: Antimicrobial activity against Bacillus cereus by disk diffusion method
Bacillus subtilis = assay: Antimicrobial activity against Bacillus subtilis by disk diffusion method
Shigella boydii = assay: Antimicrobial activity against Shigella boydii by disk diffusion method
Shigella dysenteriae = assay: Antimicrobial activity against Shigella shigae by disk diffusion method
Shigella sonnei = assay: Antimicrobial activity against Shigella sonnei by disk diffusion method
Staphylococcus aureus = assay: Antimicrobial activity against Staphylococcus aureus by disk diffusion method
Enterococcus faecalis = assay: Antimicrobial activity against sStreptococcus faecalis by disk diffusion method

Row | SMILES | inhibition zone (IZ) (Bacillus cereus) | inhibition zone (IZ) (Bacillus subtilis) | inhibition zone (IZ) (Shigella boydii) | inhibition zone (IZ) (Shigella dysenteriae) | inhibition zone (IZ) (Shigella sonnei) | inhibition zone (IZ) (Staphylococcus aureus) | inhibition zone (IZ) (Enterococcus faecalis)
1 | C=C1CC[C@H]2[C@@]3(C)CCC[C@]2(C(=O)OC3)[C@H]1CC(=O)c1ccoc1 | 13 mm | 16 mm | 8 mm | 12 mm | 10 mm | 14 mm | 12 mm
2 | C[C@H]1c2cccc(O)c2C(=O)C2=C(O)[C@]3(O)C(=O)C(C(N)=O)=C(O)[C@@H](N(C)C)[C@@H]3[C@@H](O)[C@@H]21.O [DOXYCYCLINE] | 31 mm | 34 mm | 38 mm | 37 mm | 30 mm | 35 mm | 35 mm
